In patent US20250144179A1, “PEPTIDE HORMONE TO PREVENT OR TREAT VASOSPASM, BRAIN INJURY OR CEREBRAL EDEMA” (UNIVERSITY OF FLORIDA RESEARCH FOUNDATION, INCORPORATED, priority 2022, published 2025):

Tests used:
Assay type in all cases: in vivo, mouse
[1] = tested on: occludin; test: Western blot of occludin in brain after SAH; settings: wild-type mice, adropin 450 nmol/kg i.p. vs vehicle
Experimental: (§1) Synthetic adropin^34-76 peptide was supplied from Bachem (Bubendorf, Switzerland) and diluted in 0.1% BSA in saline. 0.1% BSA in saline was used as vehicle control for all experiments. Adropin (450 nmol/kg) or an equivalent volume of vehicle was delivered via intraperitoneal injection 15 minutes post-SAH. For experiments ending at 24 hours post-SAH, an identical dose of adropin/vehicle was given again 12 hours later. For experiments ending 7 days post-SAH, adropin/vehicle was given again on days 1, 3 & 5 post-SAH. In the aneurysm rupture model, adropin was given at a dose of 450 nmol/kg starting 3 days before aneurysm induction (elastase injection). Adropin was given every other day until sacrifice
(§2) SAH was modeled using the anterior circulation single autologous blood injection method^25,33 with minor adjustments. Mice were anesthetized with ketamine (100 mg/kg) and xylazine (10 mg/kg) before removing hair from scalp and cleaning with serial betadine—saline washes. The tail was also prepped from the base extending 1 cm distally. Mice were then fixed into a stereotaxic frame and body temperature maintained at 37° C. The scalp was incised along the sagittal suture from bregma to the nasal bone. […]
(§3) At 24 hours or 7 days post-SAH, mice were deeply anesthetized and perfused with 10 mL of ice-cold PBS. […] Samples were centrifuged, supernatant collected, and protein quantified via Bradford assay. […]

[2] = tested on: wild-type mice, SAH model; test: Delayed cerebral vessel casting, MCA diameter (vasospasm) after SAH
Experimental: as §1, with “Adropin (450 nmol/kg) or an equivalent volume of vehicle was delivered via intraperitoneal injection 15 minutes post-SAH.” left out
SAH was modeled using the anterior circulation single autologous blood injection method^25,33 with minor adjustments. Mice were anesthetized with ketamine (100 mg/kg) and xylazine (10 mg/kg) before removing hair from scalp and cleaning with serial betadine—saline washes. […]
(§4) Middle cerebral artery diameter were measured as previously reported.^36,37 One week post-SAH, mice were deeply anesthetized with ketamine and xylazine before being serially perfused through the left ventricle with PBS (5 mL), 4% PFA (15 mL), and 20% India ink dissolved in 5% gelatin. […] Brains were imaged and analyzed by an observer blinded to group assignment. The narrowest diameter within the first 2000 μm of the middle cerebral artery (MCA) after the terminal interior carotid artery bifurcation (M1 segment) was measured to assess vasospasm. […]

[3] = tested on: eNOS^−/− mice, SAH model; test: MCA diameter (vasospasm) after SAH in eNOS knockout mice; settings: one week post-SAH
Excerpt: All animal experiments were approved by IACUC (Institutional Animal Care and Use Committee) and performed in accordance with ARRIVE (Animal Research: Reporting of In Vivo Experiments) guidelines. All animals were 12-15-week-old females and were housed in pathogen-free housing with ad libitum food and water and 12-h light/dark cycling. Wild-type C57B1/6 mice were received from Charles River Labs (Wilmington, Mass.) and eNOS knockout mice were obtained from The Jackson Laboratory (Bar Harbor, Maine). eNOS knockout breeding pairs were genotyped prior to breeding and F1 progeny used for all experiments. The following primers were used for genotyping: eNOS knockout (Nos3^−/−): F-5′-[…]-3′, R-5′-[…]-3′. All animals underwent twice daily monitoring from institutional animal care services staff and/or investigators. […]
as §4

[4] = tested on: ZO-1; test: Western blot of ZO-1 in brain after SAH; settings: wild-type mice, adropin 450 nmol/kg i.p. vs vehicle
Experimental: as §1, §2, §3

[5] = Quantitative serum assays for common markers of liver toxicity

For “adropin (CHSRSADVDSLSESSPNSSPGPCPEKAPPPQKPSHEGSYLLQP) [Synthetic adropin^34-76 peptide from Bachem]”, the “occludin expression (immunoblot)” value [1] was “preserved the expression of occludin”, the “ipsilateral MCA diameter (cerebral vasospasm)” value ([2]; seven days post-SAH, treatment started 15 minutes post-SAH) was “adropin-treatment reversed this phenotype” and the “cerebral vasospasm (MCA diameter)” value ([2]; treatment initiated at 24 hours post-SAH) was “strong trend for reduced cerebral vasospasm”. The “vasospasm (MCA diameter)” value [3] was “adropin did not prevent vasospasm”, the “ZO-1 expression (immunoblot)” value [4] was “preserved the expression of occludin and ZO-1” and the “serum concentration of alanine aminotransferase (ALT)” value ([5]; I.P. injection of adropin) was “did not cause elevations”. The “serum concentration of aspartate aminotransferase (AST)” value ([5]; I.P. injection of adropin) was “did not cause elevations”, the “serum concentration of fasting glucose” value ([5]; I.P. injection of adropin) was “did not cause elevations” and the “serum concentration of total bilirubin” value ([5]; I.P. injection of adropin) was “did not cause elevations”. The “common markers of liver toxicity” value ([5]; adropin vs vehicle) was “adropin had no effect compared to vehicle treatment”.
